Reference: patent US12144795B2, “Cannabidiol compositions having modified cannabinoid profiles” (priority 2018, dated 2024)

Assay: Stability studies of CBD prepared via Protocol 3 (crude, pure, 2x recrystallized; 5° C., 25° C./60% RH, 40° C./75% RH)
Format: physicochemical

C=C(C)[C@@H]1CCC(C)=C[C@H]1c1c(O)cc(CCCCC)cc1O [Crude CBD]
Appearance (25° C./60% RH, 0 month): White | Assay by HPLC (25° C./60% RH, 0 month): 99.9% | Each unspecified impurity: RRT~1.540 (25° C./60% RH, 0 month): 0.06% | Each unspecified impurity: RRT~1.690 (25° C./60% RH, 0 month): 0.11% | Related substances by HPLC (low level): Δ9-Tetrahydrocannabinol (25° C./60% RH, 0 month): 26 ppm | Related substances by HPLC: 4-Monobromo-CBD (25° C./60% RH, 0 month): <0.03% (0.02%) | Related substances by HPLC: Olivetol (25° C./60% RH, 0 month): <0.03% (ND) | Related substances by HPLC: Sum of impurities, ≥0.05% (25° C./60% RH, 0 month): 0.17% | Related substances by HPLC: Δ9-Tetrahydrocannabinol (25° C./60% RH, 0 month): <0.02% (ND) | Appearance (25° C./60% RH, 1 month): Off-White | Assay by HPLC (25° C./60% RH, 1 month): 98.2% | Each unspecified impurity: RRT~1.927 (25° C./60% RH, 1 month): 0.07% | Each unspecified impurity: RRT~2.146 (25° C./60% RH, 1 month): 0.12% | Related substances by HPLC (low level): Δ8-Tetrahydrocannabinol (25° C./60% RH, 1 month): 6 ppm | Related substances by HPLC (low level): Δ9-Tetrahydrocannabinol (25° C./60% RH, 1 month): 29 ppm | Related substances by HPLC: 4-Monobromo-CBD (25° C./60% RH, 1 month): <0.03% (0.02) | Related substances by HPLC: Olivetol (25° C./60% RH, 1 month): <0.03% (ND) | Related substances by HPLC: Sum of impurities, ≥0.05% (25° C./60% RH, 1 month): 0.19% | Related substances by HPLC: Δ8-Tetrahydrocannabinol (25° C./60% RH, 1 month): <0.02% (ND) | Related substances by HPLC: Δ9-Tetrahydrocannabinol (25° C./60% RH, 1 month): <0.02% (ND) | Appearance (25° C./60% RH, 2 months): Off-White | Assay by HPLC (25° C./60% RH, 2 months): 99.5% | Each unspecified impurity: RRT~1.931 (25° C./60% RH, 2 months): 0.06% | Each unspecified impurity: RRT~2.151 (25° C./60% RH, 2 months): 0.09% | Related substances by HPLC (low level): Δ8-Tetrahydrocannabinol (25° C./60% RH, 2 months): 5 ppm | Related substances by HPLC (low level): Δ9-Tetrahydrocannabinol (25° C./60% RH, 2 months): 27 ppm | Related substances by HPLC: 4-Monobromo-CBD (25° C./60% RH, 2 months): <0.03% (0.02%) | Related substances by HPLC: Olivetol (25° C./60% RH, 2 months): <0.03% (0.02%) | Related substances by HPLC: Sum of impurities, ≥0.05% (25° C./60% RH, 2 months): 0.15% | Related substances by HPLC: Δ8-Tetrahydrocannabinol (25° C./60% RH, 2 months): <0.02% (ND) | Related substances by HPLC: Δ9-Tetrahydrocannabinol (25° C./60% RH, 2 months): <0.02% (ND) | Appearance (25° C./60% RH, 3 months): Off-white | Assay by HPLC (25° C./60% RH, 3 months): 98.1% | Each unspecified impurity: RRT~1.983 (25° C./60% RH, 3 months): 0.05% | Each unspecified impurity: RRT~2.260 (25° C./60% RH, 3 months): 0.10% | Related substances by HPLC (low level): Δ8-Tetrahydrocannabinol (25° C./60% RH, 3 months): 8 ppm | Related substances by HPLC (low level): Δ9-Tetrahydrocannabinol (25° C./60% RH, 3 months): 13 ppm | Related substances by HPLC: 4-Monobromo-CBD (25° C./60% RH, 3 months): <0.03% (0.02%) | Related substances by HPLC: Olivetol (25° C./60% RH, 3 months): <0.03% (ND) | Related substances by HPLC: Sum of impurities, ≥0.05% (25° C./60% RH, 3 months): 0.15% | Related substances by HPLC: Δ8-Tetrahydrocannabinol (25° C./60% RH, 3 months): <0.02% (ND) | Related substances by HPLC: Δ9-Tetrahydrocannabinol (25° C./60% RH, 3 months): <0.02% (ND) | Appearance (40° C./75% RH, 0 month): White | Assay by HPLC (40° C./75% RH, 0 month): 99.9% | Each unspecified impurity: RRT~1.540 (40° C./75% RH, 0 month): 0.06% | Each unspecified impurity: RRT~1.690 (40° C./75% RH, 0 month): 0.11% | Related substances by HPLC (low level): Δ9-Tetrahydrocannabinol (40° C./75% RH, 0 month): 26 ppm | Related substances by HPLC: 4-Monobromo-CBD (40° C./75% RH, 0 month): <0.03% (0.02%) | Related substances by HPLC: Olivetol (40° C./75% RH, 0 month): <0.03% (ND) | Related substances by HPLC: Sum of impurities, ≥0.05% (40° C./75% RH, 0 month): 0.17% | Related substances by HPLC: Δ9-Tetrahydrocannabinol (40° C./75% RH, 0 month): <0.02% (ND) | Appearance (40° C./75% RH, 1 month): Yellow Powder | Assay by HPLC (40° C./75% RH, 1 month): 98.7% | Each unspecified impurity: RRT~1.928 (40° C./75% RH, 1 month): 0.06% | Each unspecified impurity: RRT~2.150 (40° C./75% RH, 1 month): 0.11% | Related substances by HPLC (low level): Δ8-Tetrahydrocannabinol (40° C./75% RH, 1 month): 7 ppm | Related substances by HPLC (low level): Δ9-Tetrahydrocannabinol (40° C./75% RH, 1 month): 28 ppm | Related substances by HPLC: 4-Monobromo-CBD (40° C./75% RH, 1 month): <0.03% (0.02) | Related substances by HPLC: Olivetol (40° C./75% RH, 1 month): <0.03% (ND) | Related substances by HPLC: Sum of impurities, ≥0.05% (40° C./75% RH, 1 month): 0.17% | Related substances by HPLC: Δ8-Tetrahydrocannabinol (40° C./75% RH, 1 month): <0.02% (ND) | Related substances by HPLC: Δ9-Tetrahydrocannabinol (40° C./75% RH, 1 month): <0.02% (ND) | Appearance (40° C./75% RH, 2 months): Off-White | Assay by HPLC (40° C./75% RH, 2 months): 99.6% | Each unspecified impurity: RRT~1.931 (40° C./75% RH, 2 months): 0.06% | Each unspecified impurity: RRT~2.151 (40° C./75% RH, 2 months): 0.07% | Related substances by HPLC (low level): Δ8-Tetrahydrocannabinol (40° C./75% RH, 2 months): 4 ppm | Related substances by HPLC (low level): Δ9-Tetrahydrocannabinol (40° C./75% RH, 2 months): 27 ppm | Related substances by HPLC: 4-Monobromo-CBD (40° C./75% RH, 2 months): <0.03% (0.02) | Related substances by HPLC: Olivetol (40° C./75% RH, 2 months): <0.03% (ND) | Related substances by HPLC: Sum of impurities, ≥0.05% (40° C./75% RH, 2 months): 0.13% | Related substances by HPLC: Δ8-Tetrahydrocannabinol (40° C./75% RH, 2 months): <0.02% (ND) | Related substances by HPLC: Δ9-Tetrahydrocannabinol (40° C./75% RH, 2 months): <0.02% (ND) | Appearance (40° C./75% RH, 3 months): Off-white | Assay by HPLC (40° C./75% RH, 3 months): 99.0% | Each unspecified impurity: RRT~1.982 (40° C./75% RH, 3 months): 0.05% | Each unspecified impurity: RRT~2.258 (40° C./75% RH, 3 months): 0.09% | Related substances by HPLC (low level): Δ8-Tetrahydrocannabinol (40° C./75% RH, 3 months): 8 ppm | Related substances by HPLC (low level): Δ9-Tetrahydrocannabinol (40° C./75% RH, 3 months): 17 ppm | Related substances by HPLC: 4-Monobromo-CBD (40° C./75% RH, 3 months): <0.03% (0.02) | Related substances by HPLC: Olivetol (40° C./75% RH, 3 months): <0.03% (ND) | Related substances by HPLC: Sum of impurities, ≥0.05% (40° C./75% RH, 3 months): 0.14% | Related substances by HPLC: Δ8-Tetrahydrocannabinol (40° C./75% RH, 3 months): <0.02% (ND) | Related substances by HPLC: Δ9-Tetrahydrocannabinol (40° C./75% RH, 3 months): <0.02% (ND) | Appearance (40° C./75% RH, 5 months): Beige/off- | Assay by HPLC (40° C./75% RH, 5 months): 98.6% | Each unspecified impurity: Methadienol deg-1 (40° C./75% RH, 5 months): deg-1: 0.03% | Each unspecified impurity: RRT~0.956 (40° C./75% RH, 5 months): 0.04% | Each unspecified impurity: RRT~1.918 (40° C./75% RH, 5 months): 0.05% | Related substances by HPLC (low level): Δ8-Tetrahydrocannabinol (40° C./75% RH, 5 months): 36 ppm | Related substances by HPLC (low level): Δ9-Tetrahydrocannabinol (40° C./75% RH, 5 months): 24 ppm | Related substances by HPLC: 4-Monobromo-CBD (40° C./75% RH, 5 months): <0.03% (ND) | Related substances by HPLC: Olivetol (40° C./75% RH, 5 months): <0.03% (ND) | Related substances by HPLC: Sum of impurities, ≥0.05% (40° C./75% RH, 5 months): 0.05% | Related substances by HPLC: Δ8-Tetrahydrocannabinol (40° C./75% RH, 5 months): <0.02% (ND) | Related substances by HPLC: Δ9-Tetrahydrocannabinol (40° C./75% RH, 5 months): <0.02% (ND)
